Results published in ChEMBL document CHEMBL4811258, “Potent Antimalarials with Development Potential Identified by Structure-Guided Computational Optimization of a Pyrrole-Based Dihydroorotate Dehydrogenase Inhibitor Series” (J Med Chem, 2021).
In brackets after ≈: the same amount, converted by molar mass. Activity calls are given as the source filed them. The calls are words filed in the database; no cut-off is given here.

Tests used:
[1] = Inhibition of Plasmodium falciparum DHODH expressed in Escherichia coli BL21-DE3 using L-dihydroorotate as substrate by steady-state DCIP method
Albumin = Albumin (Bos taurus, UniProt P02769); assay: Binding affinity to bovine serum albumin by Albumax assay; format: ADME; details: cattle, isolated protein
[2] = Binding affinity to microsome (unknown origin); format: ADME; details: microsomes
[3] = Intrinsic clearance in mouse liver microsomes at 1 uM measured up to 4 hrs by LC-MS analysis; format: ADME, Microsome
[4] = Unbound intrinsic clearance in mouse liver microsomes at 1 uM measured up to 4 hrs by LC-MS analysis; format: ADME, Microsome
[5] = Plasma clearance in Swiss mouse at 1 mg/kg, iv measured up to 24 hrs by LC-MS analysis; format: ADME, organism-based
[6] = Volume of distribution at steady state in Swiss mouse at 1 mg/kg, iv measured up to 24 hrs by LC-MS analysis; format: ADME, organism-based; details: in vivo, read-out: Vdss
[7] = Half life in Swiss mouse at 10 mg/kg, po measured up to 24 hrs by LC-MS analysis; format: ADME, organism-based; details: in vivo
[8] = Tmax in Swiss mouse at 10 mg/kg, po measured up to 24 hrs by LC-MS analysis; format: ADME, organism-based; details: in vivo
[9] = Cmax in Swiss mouse at 10 mg/kg, po measured up to 24 hrs by LC-MS analysis; format: ADME, organism-based; set-up: route oral, dose 10 mg/kg, time <=24; details: in vivo
[10] = AUC (0 to infinity) in Swiss mouse at 10 mg/kg, po measured up to 24 hrs by LC-MS analysis; format: ADME, organism-based; set-up: route oral, dose 10 mg/kg, time <=24; details: in vivo
[11] = Oral bioavailability in Swiss mouse at 10 mg/kg measured up to 24 hrs by LC-MS analysis; format: ADME, organism-based; details: in vivo
[12] = Plasma clearance in Sprague-Dawley rat at […], iv measured up to 24 hrs; format: ADME, organism-based; details: dose 2.6 mg/kg
[13] = Volume of distribution at steady state in Sprague-Dawley rat at […], iv measured up to 24 hrs; format: ADME, organism-based; details: in vivo, dose 2.6 mg/kg, read-out: Vdss
[14] = Apparent half life in Sprague-Dawley rat at 19 mg/kg, po measured up to 24 hrs; format: ADME, organism-based; details: in vivo, read-out: t1/2(app) (converted)
[15] = Tmax in Sprague-Dawley rat at 19 mg/kg, po measured up to 24 hrs; format: ADME, organism-based; details: in vivo
[16] = Cmax in Sprague-Dawley rat at 19 mg/kg, po measured up to 24 hrs; format: ADME, organism-based; set-up: route oral, dose 19 mg/kg, time <=24; details: in vivo
[17] = AUC (0 to infinity) in Sprague-Dawley rat at 19 mg/kg, po measured up to 24 hrs; format: ADME, organism-based; set-up: route oral, dose 19 mg/kg, time <=24; details: in vivo
[18] = Oral bioavailability in Sprague-Dawley rat at 19 mg/kg measured up to 24 hrs; format: ADME, organism-based; details: in vivo
Plasmodium falciparum [19] = assay: Antiplasmodial activity against Plasmodium falciparum 3D7 Uganda infected in human erythrocytes assessed as parasite killing using albumax media measured after 72 hrs by SYBR Green assay; format: functional, organism-based; details: 3D7, 72 h
Plasmodium falciparum [20] = assay: Antiplasmodial activity against Plasmodium falciparum Dd2 Uganda infected in human erythrocytes assessed as parasite killing using albumax media measured after 72 hrs by SYBR Green assay; format: functional, organism-based; details: Dd2, 72 h
Plasmodium falciparum [21] = assay: Antiplasmodial activity against Plasmodium falciparum Uganda field isolated from patients infected in human erythrocytes assessed as parasite killing using albumax media measured after 72 hrs by SYBR Green assay; format: functional, organism-based
Plasmodium falciparum [22] = assay: Antimalarial activity against Plasmodium falciparum 3D70087/N9 infected in orally dosed NOD-SCID IL2Rgamma null mouse assessed as parasitemia level administered days after 3 post infection once daily for 4 days measured on day 7 by flow cytometry; format: functional; details: time 4 day
[23] = Unbound AUC in orally dosed NOD-SCID IL2Rgamma null mouse infected with Plasmodium falciparum 3D70087/N9 administered days after 3 post infection once daily for 4 days measured on day 7 by flow cytometry; format: ADME, organism-based; details: in vivo, po, 96 h, time 4 day
Plasmodium falciparum [24] = assay: Antimalarial activity against Plasmodium falciparum 3D70087/N9 infected in NOD-SCID IL2Rgamma null mouse assessed as parasitemia level at 10 mg/kg, po administered days after 3 post infection once daily for 4 days measured on day 7 by flow cytometry; format: functional, organism-based; details: time 4.0 day
Plasmodium falciparum [25] = assay: Antimalarial activity against Plasmodium falciparum 3D70087/N9 infected in orally dosed NOD-SCID IL2Rgamma null mouse assessed as parasitemia level in human red blood cells at 16.7 mg/kg, po administered days after 1 day post infection twice daily for 6 days measured on day 7 by flow cytometry; format: functional, organism-based; details: time 6.0 day
physchem [26] = details: FaSSGF, pH 1.6
physchem [27] = details: FaSSIF, pH 6.5
physchem [28] = details: FeSSIF, pH 5.8
physchem [29] = details: PBS, pH 7.4
in vitro [30] = details: human, plasma
in vitro [31] = details: rat, plasma
in vitro [32] = details: mouse, plasma
in vitro [33] = details: human, caco-2, pH 7.4
in vitro [34] = details: human, caco-2, pH 7.4; remark: listed apart in the source
Plasmodium falciparum [35] = assay: microbe, parasite or virus in culture; details: 3D7, 72 h

Chain of Albumin (P02769 whole entry): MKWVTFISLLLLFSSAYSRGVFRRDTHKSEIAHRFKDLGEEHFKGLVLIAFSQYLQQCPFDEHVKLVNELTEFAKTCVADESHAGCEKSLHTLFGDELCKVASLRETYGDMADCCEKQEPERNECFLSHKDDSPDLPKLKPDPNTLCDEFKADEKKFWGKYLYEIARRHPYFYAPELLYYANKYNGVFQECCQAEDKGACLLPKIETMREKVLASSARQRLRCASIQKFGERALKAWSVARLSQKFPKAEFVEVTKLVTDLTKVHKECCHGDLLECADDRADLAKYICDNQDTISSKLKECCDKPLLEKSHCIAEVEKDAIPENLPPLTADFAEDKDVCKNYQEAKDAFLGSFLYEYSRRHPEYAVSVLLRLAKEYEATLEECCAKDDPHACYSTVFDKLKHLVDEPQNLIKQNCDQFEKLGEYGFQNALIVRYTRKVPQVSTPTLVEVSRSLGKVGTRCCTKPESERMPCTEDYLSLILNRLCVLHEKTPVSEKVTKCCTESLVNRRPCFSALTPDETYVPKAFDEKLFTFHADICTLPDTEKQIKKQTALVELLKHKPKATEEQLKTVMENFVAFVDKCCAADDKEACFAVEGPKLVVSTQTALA

Question: With `Cc1cc(Nc2ccc(S(F)(F)(F)(F)F)cc2)n2nc(C(F)(F)F)nc2n1` as the compound, how does the IC50 [1] read?
Answer: 30 nM

Question: And the Activity (Albumin)?
Answer: 83.1%

Question: And the Activity [2]?
Answer: 71.7%

Question: What about the Intrinsic clearance [3] of the same compound?
Answer: < 7 µL/min/mg

Question: And the CL free [4]?
Answer: < 25 µL/min/mg

Question: What about the clearance [5] of the same compound?
Answer: 8.2 mL/min/kg

Question: And the Vd [6]?
Answer: 2.3 L/kg

Question: What about the half-life [7] of the same compound?
Answer: 2.5 h

Question: What about the Tmax [8] of the same compound?
Answer: 1.2 h

Question: And the Cmax [9]?
Answer: 3.1 µM

Question: What about the AUC(0-inf) [10] of the same compound?
Answer: 22.8 µM·h

Question: And the bioavailability [11]?
Answer: 46%

Question: What about the clearance at 24 h [12] of the same compound?
Answer: 6.5 mL/min/kg

Question: What about the Vd at 24 h [13] of the same compound?
Answer: 5.9 L/kg

Question: What about the half-life [14] of the same compound?
Answer: 16 h

Question: What about the Tmax [15] of the same compound?
Answer: 7 h

Question: What about the Cmax [16] of the same compound?
Answer: 4 µM

Question: And the AUC(0-inf) [17]?
Answer: 120 µM·h

Question: And the bioavailability [18]?
Answer: 57%

Question: And the EC50 (Plasmodium falciparum [19])?
Answer: 2.9 nM

Question: And the EC50 (Plasmodium falciparum [20])?
Answer: 2.9 nM

Question: And the EC50 (Plasmodium falciparum [21])?
Answer: 3.7 nM

Question: What about the ED50 (Plasmodium falciparum [22]) of the same compound?
Answer: 5.6 mg/kg

Question: What about the fAUC [23] of the same compound?
Answer: 0.85 µM·h

Question: What about the Activity (Plasmodium falciparum [24]) of the same compound?
Answer: Active

Question: And the Activity (Plasmodium falciparum [25])?
Answer: Active

Question: And the solubility at 1 h (physchem [26])?
Answer: 6.8 µg/mL (≈ 16.2 µM)

Question: And the solubility at 5 h (physchem [27])?
Answer: 5.1 µg/mL (≈ 12.2 µM)

Question: What about the solubility at 5 h (physchem [28]) of the same compound?
Answer: 27.6 µg/mL (≈ 65.8 µM)

Question: What about the solubility at 5 h (physchem [29]) of the same compound?
Answer: 2 µg/mL (≈ 4.77 µM)

Question: And the fraction unbound (in vitro [30])?
Answer: 0.002

Question: What about the fraction unbound (in vitro [31]) of the same compound?
Answer: 0.025

Question: And the fraction unbound (in vitro [32])?
Answer: 0.03

Question: And the Papp A→B (in vitro [33])?
Answer: 54 ×10⁻⁶ cm/s

Question: What about the Papp B→A (in vitro [34]) of the same compound?
Answer: 49 ×10⁻⁶ cm/s

Question: What about the EC50 (Plasmodium falciparum [35]) of the same compound?
Answer: 6 nM
